Values after ≈ are worked out from the molar mass of the structure shown.
Key:
Format in all cases: functional
Staphylococcus aureus [1] = assay: Antimicrobial activity against Staphylococcus aureus harboring ANT(4')-1 enzyme
Staphylococcus aureus [2] = assay: Antimicrobial activity against Staphylococcus aureus harboring APH(2'''') and AAC(6') enzymes
Staphylococcus aureus [3] = assay: Antimicrobial activity against Staphylococcus aureus ATCC 29213
Staphylococcus aureus [4] = assay: Antimicrobial activity against Staphylococcus aureus harboring APH(3'/5'''')-3 enzyme
Staphylococcus aureus [5] = assay: Antimicrobial activity against methicillin-resistant Staphylococcus aureus clinical isolate
Staphylococcus aureus [6] = assay: Ratio of amikacin MIC90 to compound MIC90 for methicillin-resistant Staphylococcus aureus clinical isolate
Staphylococcus aureus [7] = assay: Ratio of amikacin MIC50 to compound MIC50 for methicillin-resistant Staphylococcus aureus clinical isolate

Row | Compound | MIC (Staphylococcus aureus [1]) | MIC (Staphylococcus aureus [2]) | MIC (Staphylococcus aureus [3]) | MIC (Staphylococcus aureus [4]) | MIC50 (Staphylococcus aureus [5]) | MIC90 (Staphylococcus aureus [5]) | Ratio (Staphylococcus aureus [6]) | Ratio (Staphylococcus aureus [7])
1 | NC[C@H]1O[C@H](O[C@H]2[C@H](O[C@@H]3O[C@H](CO)[C@@H](O)[C@H]3O)[C@@H](O)[C@H](N)C[C@@H]2N)[C@H](N)[C@@H](O)[C@@H]1O [RIBOSTAMYCIN] | > 64 µg/mL | > 64 µg/mL | 8 µg/mL (≈ 17.6 µM) | > 64 µg/mL |  |  |  | 
2 | NCC[C@H](O)C(=O)N[C@@H]1C[C@H](N)[C@@H](O[C@H]2O[C@H](CN)[C@@H](O)[C@H](O)[C@H]2O)[C@H](O)[C@H]1O[C@H]1O[C@H](CO)[C@@H](O)[C@H](N)[C@H]1O [AMIKACIN] | 64 µg/mL (≈ 109 µM) | 64 µg/mL (≈ 109 µM) | 4 µg/mL (≈ 6.83 µM) | 8 µg/mL (≈ 13.7 µM) | 32 µg/mL (≈ 54.6 µM) | > 64 µg/mL |  | 
3 | NC[C@H]1CC[C@@H](N)[C@@H](O[C@H]2[C@@H](O)[C@H](O[C@@H]3[C@@H](O)[C@H](N)C[C@H](N)[C@H]3O[C@H]3O[C@H](CO)CC[C@H]3N)O[C@@H]2CO)O1 | 4 µg/mL (≈ 7.25 µM) | > 32 µg/mL | 2 µg/mL (≈ 3.63 µM) |  |  |  |  | 
4 | CN[C@@H]1[C@@H](O)[C@@H](O[C@@H]2[C@@H](O)[C@H](O[C@H]3O[C@H]([C@@H](C)NC)CC[C@H]3N)[C@@H](N)C[C@H]2N)OC[C@]1(C)O [GENTAMICIN C1] | 0.5 µg/mL (≈ 1.05 µM) | > 64 µg/mL | 0.5 µg/mL (≈ 1.05 µM) | 0.5 µg/mL (≈ 1.05 µM) | > 32 µg/mL | > 32 µg/mL |  | 
5 | NC[C@@H]1O[C@H](O[C@H]2[C@@H](O)[C@H](O[C@@H]3[C@@H](O)[C@H](N)C[C@H](N)[C@H]3O[C@H]3O[C@H](CO)[C@@H](O)[C@H](O)[C@H]3N)O[C@@H]2CO)[C@H](N)[C@@H](O)[C@@H]1O [PAROMOMYCIN] | > 64 µg/mL | > 64 µg/mL | 2 µg/mL (≈ 3.25 µM) | > 64 µg/mL |  |  |  | 
6 | NCC[C@H](O)C(=O)N[C@@H]1C[C@H](N)[C@@H](O[C@H]2O[C@H](CO)CC[C@H]2N)[C@H](O[C@@H]2O[C@H](CO)[C@@H](O[C@H]3O[C@@H](CN)CC[C@H]3N)[C@H]2O)[C@H]1O | 8 µg/mL (≈ 12.3 µM) | 16 µg/mL (≈ 24.5 µM) | 1 µg/mL (≈ 1.53 µM) |  |  |  |  | 
7 | butirosin | > 32 µg/mL | > 32 µg/mL | 8 µg/mL | > 32 µg/mL |  |  |  | 
8 | NC[C@@H]1O[C@H](O[C@H]2[C@@H](O)[C@H](O[C@@H]3[C@@H](O)[C@H](N)C[C@H](N)[C@H]3O[C@H]3O[C@H](CN)[C@@H](O)[C@H](O)[C@H]3N)O[C@@H]2CO)[C@H](N)[C@@H](O)[C@@H]1O [FRAMYCETIN] | > 64 µg/mL | > 64 µg/mL | 0.5 µg/mL (≈ 0.813 µM) | > 64 µg/mL |  |  |  | 
9 | NCC[C@H](O)C(=O)N[C@@H]1C[C@H](N)[C@@H](O[C@H]2O[C@H](CO)[C@@H](O)[C@H](O)[C@H]2N)[C@H](O[C@@H]2O[C@H](CO)[C@@H](O[C@H]3O[C@@H](CN)[C@@H](O)[C@H](O)[C@H]3N)[C@H]2O)[C@H]1O | > 64 µg/mL | > 32 µg/mL | 2 µg/mL (≈ 2.79 µM) | 32 µg/mL (≈ 44.6 µM) |  |  |  | 
10 | NCC[C@H](O)C(=O)N[C@@H]1C[C@H](N)[C@@H](O[C@H]2O[C@H](CN)CC[C@H]2N)[C@H](O[C@@H]2O[C@H](CO)[C@@H](O[C@H]3O[C@@H](CN)CC[C@H]3N)[C@H]2O)[C@H]1O | 1 µg/mL (≈ 1.53 µM) | 2 µg/mL (≈ 3.07 µM) | 0.5 µg/mL (≈ 0.767 µM) | 1 µg/mL (≈ 1.53 µM) | 0.25 µg/mL (≈ 0.384 µM) | 0.5 µg/mL (≈ 0.767 µM) | >64 | >64
11 | NC[C@@H]1CC[C@@H](N)[C@@H](O[C@H]2[C@H](O[C@@H]3O[C@H](CO)[C@@H](O[C@H]4O[C@@H](CN)CC[C@H]4N)[C@H]3O)[C@@H](O)[C@H](N)C[C@@H]2N)O1 | 0.5 µg/mL (≈ 0.908 µM) | > 64 µg/mL | 0.5 µg/mL (≈ 0.908 µM) | 32 µg/mL (≈ 58.1 µM) |  |  |  | 

Source: ChEMBL document CHEMBL2034941, “Toward Overcoming Staphylococcus aureus Aminoglycoside Resistance Mechanisms with a Functionally Designed Neomycin Analogue” (2011)
